This is an account of results in US10479784B2, “Substituted pyrazin-2-amines as inhibitors of ATR kinase” (Vertex Pharmaceuticals Incorporated, priority 2008, dated 2019).

Bounds are passed on as bounds.

For the test, the target named is full-length ATR (Homo sapiens (Human), UniProt Q13535). As to the kind of experiment: ATR Inhibition Assay (radioactive-phosphate incorporation). The format is biochemical. The following applies: read-out: ATR Ki. A digest of the protocol: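 Full-length human ATR (5 nM) was assayed at 25 °C in 50 mM Tris/HCl pH 7.5, 10 mM MgCl2, 1 mM DTT, with 10 μM [γ-33P]ATP and 800 μM peptide, after 10-min compound preincubation. Reactions were stopped after 24 h, captured on phosphocellulose and counted; Ki(app) came from non-linear regression of initial rates.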
Chain of full-length ATR (Q13535 whole entry): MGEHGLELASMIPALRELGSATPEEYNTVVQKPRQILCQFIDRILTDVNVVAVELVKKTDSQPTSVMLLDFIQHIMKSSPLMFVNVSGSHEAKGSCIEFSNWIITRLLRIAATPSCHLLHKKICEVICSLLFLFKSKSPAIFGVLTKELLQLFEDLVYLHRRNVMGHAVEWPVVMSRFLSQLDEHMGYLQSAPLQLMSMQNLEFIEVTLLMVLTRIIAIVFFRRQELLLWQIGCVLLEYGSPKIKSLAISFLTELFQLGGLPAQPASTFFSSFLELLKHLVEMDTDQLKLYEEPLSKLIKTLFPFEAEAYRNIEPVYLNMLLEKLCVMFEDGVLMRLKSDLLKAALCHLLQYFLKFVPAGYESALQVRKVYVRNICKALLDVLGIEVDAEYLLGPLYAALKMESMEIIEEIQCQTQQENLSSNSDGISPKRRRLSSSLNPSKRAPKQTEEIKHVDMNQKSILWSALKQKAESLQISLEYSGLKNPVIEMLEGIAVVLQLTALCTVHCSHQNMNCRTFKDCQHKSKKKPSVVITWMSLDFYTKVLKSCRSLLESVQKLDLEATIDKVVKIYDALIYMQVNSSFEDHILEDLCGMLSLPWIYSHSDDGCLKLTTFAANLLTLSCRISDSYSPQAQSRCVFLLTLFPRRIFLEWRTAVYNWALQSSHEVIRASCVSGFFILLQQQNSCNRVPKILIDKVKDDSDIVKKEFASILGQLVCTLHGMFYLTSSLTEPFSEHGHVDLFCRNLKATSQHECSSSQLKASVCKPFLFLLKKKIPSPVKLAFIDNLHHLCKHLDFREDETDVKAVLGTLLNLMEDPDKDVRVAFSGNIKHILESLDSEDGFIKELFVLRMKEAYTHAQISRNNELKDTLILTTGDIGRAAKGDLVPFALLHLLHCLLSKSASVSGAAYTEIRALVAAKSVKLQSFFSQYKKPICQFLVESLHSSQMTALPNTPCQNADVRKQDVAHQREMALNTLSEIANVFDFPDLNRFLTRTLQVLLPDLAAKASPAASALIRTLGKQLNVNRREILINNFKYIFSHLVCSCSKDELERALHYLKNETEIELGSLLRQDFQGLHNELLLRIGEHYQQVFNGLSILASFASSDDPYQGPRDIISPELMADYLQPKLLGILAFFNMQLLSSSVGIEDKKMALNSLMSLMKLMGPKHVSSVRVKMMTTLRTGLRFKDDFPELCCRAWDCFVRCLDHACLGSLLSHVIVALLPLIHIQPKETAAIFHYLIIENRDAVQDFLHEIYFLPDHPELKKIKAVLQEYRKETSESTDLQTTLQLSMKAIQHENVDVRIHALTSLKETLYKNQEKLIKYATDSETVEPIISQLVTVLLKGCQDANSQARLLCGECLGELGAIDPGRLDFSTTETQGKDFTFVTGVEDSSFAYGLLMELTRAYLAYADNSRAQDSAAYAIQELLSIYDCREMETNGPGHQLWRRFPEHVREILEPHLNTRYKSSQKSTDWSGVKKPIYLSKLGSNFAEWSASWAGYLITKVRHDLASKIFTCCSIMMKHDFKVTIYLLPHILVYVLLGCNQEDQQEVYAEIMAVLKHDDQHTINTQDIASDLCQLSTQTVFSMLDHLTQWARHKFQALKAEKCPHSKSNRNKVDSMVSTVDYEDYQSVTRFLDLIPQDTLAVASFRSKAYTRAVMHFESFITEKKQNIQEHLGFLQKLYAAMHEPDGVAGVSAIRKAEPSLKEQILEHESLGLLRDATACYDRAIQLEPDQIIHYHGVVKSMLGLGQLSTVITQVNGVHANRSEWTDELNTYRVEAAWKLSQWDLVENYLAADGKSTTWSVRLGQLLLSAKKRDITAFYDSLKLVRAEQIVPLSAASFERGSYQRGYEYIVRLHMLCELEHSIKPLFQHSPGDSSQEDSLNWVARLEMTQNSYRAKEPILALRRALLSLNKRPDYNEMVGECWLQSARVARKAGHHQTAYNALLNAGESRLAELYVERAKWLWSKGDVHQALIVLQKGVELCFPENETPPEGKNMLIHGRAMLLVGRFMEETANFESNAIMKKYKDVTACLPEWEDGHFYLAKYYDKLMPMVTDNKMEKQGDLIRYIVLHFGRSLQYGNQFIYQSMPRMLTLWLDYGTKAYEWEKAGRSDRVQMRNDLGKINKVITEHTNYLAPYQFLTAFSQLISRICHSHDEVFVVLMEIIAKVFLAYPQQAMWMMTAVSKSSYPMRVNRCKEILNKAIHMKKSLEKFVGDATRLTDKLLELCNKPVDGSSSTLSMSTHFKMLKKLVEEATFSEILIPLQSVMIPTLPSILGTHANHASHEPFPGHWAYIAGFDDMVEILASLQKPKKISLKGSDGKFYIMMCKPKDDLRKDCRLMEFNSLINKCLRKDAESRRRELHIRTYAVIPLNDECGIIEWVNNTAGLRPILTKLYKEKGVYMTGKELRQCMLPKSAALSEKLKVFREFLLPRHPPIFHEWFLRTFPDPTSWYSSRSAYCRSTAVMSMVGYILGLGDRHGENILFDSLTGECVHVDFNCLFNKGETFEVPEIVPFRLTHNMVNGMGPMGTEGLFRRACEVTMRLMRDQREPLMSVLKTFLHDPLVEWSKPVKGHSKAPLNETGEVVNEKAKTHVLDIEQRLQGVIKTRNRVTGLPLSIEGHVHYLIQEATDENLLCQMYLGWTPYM

What is called Ki is a dissociation constant, usually derived from enzyme kinetics or from competition with a known ligand. As for `Nc1ncc(-c2cccnc2)nc1C(=O)Nc1cccn2ncnc12` [Compound V-14], the inhibitory constant (Ki) is 100 to 5000 nM.
Take `Nc1ncc(-c2cccc(C(=O)N3CCOCC3)c2)nc1-c1nc2ccccc2[nH]1` [Compound I-125, (3-(5-amino-6-(1H-benzo[d]imidazol-2-yl)pyrazin-2-yl)phenyl) (morpholino)methanone]: the inhibitory constant (Ki) was in the range of 10 to 100 nM.
Next, `N#Cc1ncccc1-c1cnc(N)c(-c2nnc(-c3ccccc3)o2)n1` [IA-74, 3-[5-amino-6-(5-phenyl-1,3,4-oxadiazol-2-yl)pyrazin-2-yl]pyridine-2-carbonitrile]: ≤ 10 nM; `CNCc1ccc(-c2nnc(-c3nc(-c4ccc(S(=O)(=O)C5CCOC5)cc4)cnc3N)o2)c(F)c1` (stereo not drawn) [IA-347, 3-[5-[2-fluoro-4-(methylaminomethyl)phenyl]-1,3,4-oxadiazol-2-yl]-5-(4-tetrahydrofuran-3-ylsulfonylphenyl)pyrazin-2-amine]: ≤ 10 nM; `CN(C)C(=O)c1ccc(-c2cnc(N)c(-c3nnc(Nc4ccc(Cl)cc4)o3)n2)cc1` [IA-42]: 10 to 100 nM.
Next, `CC(C)S(=O)(=O)c1ccc(-c2cnc(N)c(-c3nnc(-c4ccc(CN[C@@H](C)CO)cc4F)o3)n2)cc1` [IA-335, (S)-2-(4-(5-(3-amino-6-(4-(isopropylsulfonyl)phenyl)pyrazin-2-yl)-1,3,4-oxadiazol-2-yl)-3-fluorobenzylamino)propan-1-ol]: ≤ 10 nM; `Nc1ncc(-c2ccc(S(=O)(=O)N3CCNCC3)cc2)nc1-c1nnc(-c2ccccc2)o1` [IA-24]: 10 to 100 nM; `CC(N)c1cccc(-c2nnc(-c3nc(-c4ccc(S(=O)(=O)C(C)C)cc4)cnc3N)o2)c1` (stereo not drawn) [IA-282, 3-[5-[3-(1-aminoethyl)phenyl]-1,3,4-oxadiazol-2-yl]-5-(4-isopropylsulfonylphenyl)pyrazin-2-amine]: ≤ 10 nM.
Turning to `CC(C)S(=O)(=O)c1ccc(-c2cnc(N)c(-c3cc(-c4ccc(CN)cc4)no3)n2)cc1` [IIA-5, 3-[3-[4-(aminomethyl)phenyl]isoxazol-5-yl]-5-(4-isopropylsulfonylphenyl)pyrazin-2-amine], the Ki is ≤ 10 nM.
With `Nc1ncc(-c2ccc(C(=O)N3CCCNCC3)cc2C(F)(F)F)nc1-c1nnc(-c2ccccc2)o1` [IA-39] the figure was ≤ 10 nM; with `CN(C)C(=O)c1ccc(-c2cnc(N)c(-c3nnc(-c4ccccc4I)o3)n2)cc1` [IA-205, 4-[5-amino-6-[5-(2-iodophenyl)-1,3,4-oxadiazol-2-yl]pyrazin-2-yl]-N,N-dimethyl-benzamide], ≤ 10 nM; with `CN(C)C(=O)c1ccc(-c2cnc(N)c(-c3nnc(Nc4ccccc4Cl)o3)n2)cc1` [IA-151, 4-[5-amino-6-[5-(2-chloroanilino)-1,3,4-oxadiazol-2-yl]pyrazin-2-yl]-N,N-dimethyl-benzamide], 10 to 100 nM.
For `CC(C)S(=O)(=O)c1ccc(-c2cnc(N)c(-c3nnc(N)o3)n2)cc1` [IA-270, 5-[3-amino-6-(4-isopropylsulfonylphenyl)pyrazin-2-yl]-1,3,4-oxadiazol-2-amine], the inhibition constant Ki was ≤ 10 nM.
Next, `COc1ncccc1NC(=O)c1nc(-c2ccc(S(C)(=O)=O)cc2)cnc1N` [VII-1]: 10 to 100 nM; `CN(C)C(=O)c1ccc(-c2cnc(N)c(-c3nnc(-c4ccccn4)o3)n2)cc1` [IA-51]: 10 to 100 nM; `NCCSc1ccccc1-c1cnc(N)c(-c2nnc(-c3ccccc3)o2)n1` [IA-224, 5-(2-(2-aminoethylthio)phenyl)-3-(5-phenyl-1,3,4-oxadiazol-2-yl)pyrazin-2-amine]: 100 to 5000 nM.
Next, `CC(=O)c1cccc(-c2cnc(N)c(-c3nnc(-c4ccccc4)o3)n2)c1` [IA-249, 1-[3-[5-amino-6-(5-phenyl-1,3,4-oxadiazol-2-yl)pyrazin-2-yl]phenyl]ethanone]: 10 to 100 nM; `NC(=O)c1cccc(-c2cnc(N)c(-c3nnc(-c4ccccc4)o3)n2)c1` [IA-100, 3-[5-amino-6-(5-phenyl-1,3,4-oxadiazol-2-yl)pyrazin-2-yl]benzamide]: 10 to 100 nM.
With `CN(C)C(=O)c1ccc(-c2cnc(N)c(-c3nnc(-c4ccccc4)o3)n2)c(Cl)c1` [IA-46] the figure was 10 to 100 nM; with `Cc1ccc2nc(-c3nc(-c4ccc(C(=O)N5CCN(C)CC5)cc4)cnc3N)[nH]c2c1` [III-4, (4-(5-amino-6-(6-methyl-1H-benzo[d]imidazol-2-yl)pyrazin-2-yl)phenyl)(4-methylpiperazin-1-yl)methanone], 10 to 100 nM.
Turning to `CN(C)C(=O)c1ccc(-c2cnc(N)c(-c3nnc(-c4cccc(N)c4)o3)n2)cc1` [IA-142, 4-[5-amino-6-[5-(3-aminophenyl)-1,3,4-oxadiazol-2-yl]pyrazin-2-yl]-N,N-dimethyl-benzamide], the inhibitory constant (Ki) was ≤ 10 nM.
Next, `CCS(=O)(=O)c1ccccc1-c1cnc(N)c(-c2nnc(-c3ccccc3)o2)n1` [IA-203, 5-(2-ethylsulfonylphenyl)-3-(5-phenyl-1,3,4-oxadiazol-2-yl)pyrazin-2-amine]: 100 to 5000 nM.
For the compound `CC(=O)Nc1nnc(-c2nc(-c3ccc(S(=O)(=O)C(C)C)cc3)cnc2N)o1` [IA-177, N-[5-[3-amino-6-(4-isopropylsulfonylphenyl)pyrazin-2-yl]-1,3,4-oxadiazol-2-yl]acetamide], the Ki was 10 to 100 nM.
With `CC(C)S(=O)(=O)c1ccc(-c2cnc(N)c(-c3nnc(NC4CCNCC4)o3)n2)cc1` [IA-318, 5-[3-amino-6-(4-isopropylsulfonylphenyl)pyrazin-2-yl]-N-(4-piperidyl)-1,3,4-oxadiazol-2-amine] the figure was 100 to 5000 nM; with `COc1ccc(NC(=O)c2nc(-c3cccnc3)cnc2N)cc1` [Compound I-84, 3-amino-N-(4-methoxyphenyl)-6-(pyridin-3-yl)pyrazine-2-carboxamide], 100 to 5000 nM.
Next, `Cn1c(NC(=O)c2nc(-c3ccc(C(=O)N4CCCNCC4)cc3)cnc2N)nc2ccccc21` [Compound V-7]: 100 to 5000 nM; `Nc1ncc(-c2ccc(S(=O)(=O)NCCO)cc2)nc1-c1nnc(-c2ccccc2)o1` [IA-26]: ≤ 10 nM.
Next, `Nc1ncc(-c2ccc(C(=O)N3CCNCC3)cc2)nc1C(=O)Nc1ccccc1` [Compound I-74, 3-amino-N-phenyl-6-(4-(piperazine-1-carbonyl)phenyl)pyrazine-2-carboxamide]: 10 to 100 nM.
On to `CN(C)C(=O)c1ccc(-c2cnc(N)c(-c3nnc(-c4ccccc4OCCN)o3)n2)cc1` [IA-213, 4-[5-amino-6-[5-[2-(2-aminoethoxy)phenyl]-1,3,4-oxadiazol-2-yl]pyrazin-2-yl]-N,N-dimethyl-benzamide], for which the Ki lay in the range of 10 to 100 nM.
Next, `CS(=O)(=O)c1ccc(-c2cnc(N)c(-c3nc4ccccc4s3)n2)cc1` [Compound I-146, 3-(benzo[d]thiazol-2-yl)-5-(4-(methylsulfonyl)phenyl)pyrazin-2-amine]: 10 to 100 nM.
Take `CN(C)CCS(=O)(=O)c1ccc(-c2cnc(N)c(-c3nnc(-c4ccc(O)cc4)o3)n2)cc1` [IA-191, 4-[5-[3-amino-6-[4-(2-dimethylaminoethylsulfonyl)phenyl]pyrazin-2-yl]-1,3,4-oxadiazol-2-yl]phenol]: the Ki was ≤ 10 nM.
Next, `CN(C)C(=O)c1ccc(-c2cnc(N)c(-c3nnc(-c4ccc[nH]c4=O)o3)n2)cc1` [IA-53]: 10 to 100 nM; `CNCc1ccc(NC(=O)c2nc(-c3ccc(S(C)(=O)=O)cc3)cnc2N)cc1` [VII-10]: 100 to 5000 nM.
